According to DBAASP:
Values after ≈ are worked out from the molar mass of the structure shown.

Tests used:
Assay in all cases: ≥ marks a high value that may be exact or a test limit, other limits are often not marked, values filed in µg/mL are converted to µM
Escherichia coli JW0013 = test system: Escherichia coli JW0013
[1] = test system: Pseudomonas aeruginosa ATCC 27853
[2] = test system: Klebsiella pneumoniae ATCC 13883
[3] = test system: Staphylococcus epidermidis
Pseudomonas aeruginosa = test system: Pseudomonas aeruginosa
Staphylococcus aureus = test system: Staphylococcus aureus
[4] = test system: Staphylococcus aureus ATCC 25923
[5] = test system: Escherichia coli ATCC 25922
Escherichia coli = test system: Escherichia coli
Klebsiella pneumoniae = test system: Klebsiella pneumoniae
[6] = test system: Salmonella typhimurium KCTC 1926
[7] = test system: Staphylococcus aureus KCTC 1621
[8] = test system: Staphylococcus epidermidis KCTC 1917
[9] = test system: Pseudomonas aeruginosa KCTC 1637
[10] = test system: Escherichia coli KCTC 1682

**Q.** How did the MIC (Escherichia coli JW0013) turn out when `CC[C@H](C)[C@H](NC(=O)[C@H](CCCN=C(N)N)NC(=O)[C@H](CCCN=C(N)N)NC(=O)[C@@H]1CCCN1C(=O)[C@@H]1CCCN1C(=O)[C@H](CCCN=C(N)N)NC(=O)[C@@H]1CCCN1C(=O)[C@H](CCCN=C(N)N)NC(=O)[C@@H]1CCCN1C(=O)[C@H](CC(C)C)NC(=O)[C@H](Cc1ccc(O)cc1)NC(=O)[C@@H]1CCCN1C(=O)[C@H](C)NC(=O)[C@H](CCCCN)NC(=O)[C@H](CC(=O)O)NC(=O)[C@@H](N)C(C)C)C(=O)N[C@@H](Cc1ccc(O)cc1)C(=O)N[C@@H](CC(N)=O)C(=O)N[C@@H](CCCN=C(N)N)C(N)=O` [VDKAPYLPRPRPPRRIYNR] was run?
**A.** The MIC was 1.4 µM (≈ 3.3 µg/mL).

**Q.** Which MIC (Escherichia coli JW0013) does the source give for `CC[C@H](C)[C@H](NC(=O)[C@H](CCCN=C(N)N)NC(=O)[C@H](CCCN=C(N)N)NC(=O)[C@@H]1CCCN1C(=O)[C@@H]1CCCN1C(=O)[C@H](CCCN=C(N)N)NC(=O)[C@@H]1CCCN1C(=O)[C@H](CCCN=C(N)N)NC(=O)[C@@H]1CCCN1C(=O)[C@H](CC(C)C)NC(=O)[C@H](Cc1ccc(O)cc1)NC(=O)[C@@H]1CCCN1C(=O)[C@@H]1CCCN1C(=O)[C@H](CCCCN)NC(=O)[C@H](CC(=O)O)NC(=O)[C@H](C)N)C(=O)N[C@@H](Cc1ccc(O)cc1)C(=O)N[C@@H](CC(N)=O)C(=O)N[C@@H](CCCN=C(N)N)C(N)=O` [ADKPPYLPRPRPPRRIYNR] here?
**A.** Its MIC is 2.03 µM (≈ 4.8 µg/mL).

**Q.** With `CC[C@H](C)[C@H](NC(=O)[C@H](CCCN=C(N)N)NC(=O)[C@H](CCCN=C(N)N)NC(=O)[C@@H]1CCCN1C(=O)[C@@H]1CCCN1C(=O)[C@H](CCCN=C(N)N)NC(=O)[C@@H]1CCCN1C(=O)[C@H](CCCN=C(N)N)NC(=O)[C@@H]1CCCN1C(=O)[C@H](CC(C)C)NC(=O)[C@H](Cc1ccc(O)cc1)NC(=O)[C@@H]1CCCN1C(=O)[C@H](Cc1cnc[nH]1)NC(=O)[C@H](CCCCN)NC(=O)[C@H](CC(=O)O)NC(=O)[C@@H](N)C(C)C)C(=O)N[C@@H](Cc1ccc(O)cc1)C(=O)N[C@@H](CC(N)=O)C(=O)N[C@@H](CCCN=C(N)N)C(N)=O` [VDKHPYLPRPRPPRRIYNR] as the compound, how does the MIC (Escherichia coli JW0013) read?
**A.** Its MIC is 1.97 µM (≈ 4.8 µg/mL).

**Q.** For `CC[C@H](C)[C@H](NC(=O)[C@H](CCCN=C(N)N)NC(=O)[C@H](CCCN=C(N)N)NC(=O)[C@@H]1CCCN1C(=O)[C@@H]1CCCN1C(=O)[C@H](CCCN=C(N)N)NC(=O)[C@@H]1CCCN1C(=O)[C@H](CCCN=C(N)N)NC(=O)[C@@H]1CCCN1C(=O)[C@H](CCCN=C(N)N)NC(=O)[C@H](Cc1ccc(O)cc1)NC(=O)[C@H](Cc1cnc[nH]1)NC(=O)[C@H](CCCN=C(N)N)NC(=O)[C@H](CCCCN)NC(=O)[C@H](CC(=O)O)NC(=O)[C@@H](N)C(C)C)C(=O)N[C@@H](Cc1ccc(O)cc1)C(=O)N[C@@H](CC(N)=O)C(=O)N[C@@H](CCCN=C(N)N)C(N)=O` [VDKRHYRPRPRPPRRIYNR], which MIC (Escherichia coli JW0013) is on record?
**A.** Its MIC is 0.316 µM (≈ 0.8 µg/mL).

**Q.** For `CC[C@H](C)[C@H](NC(=O)[C@H](CCCN=C(N)N)NC(=O)[C@H](CCCN=C(N)N)NC(=O)[C@@H]1CCCN1C(=O)[C@@H]1CCCN1C(=O)[C@H](CCCN=C(N)N)NC(=O)[C@H](CCCCN)NC(=O)[C@H](CCCN=C(N)N)NC(=O)[C@@H]1CCCN1C(=O)[C@H](CC(C)C)NC(=O)[C@H](CCCN=C(N)N)NC(=O)[C@@H]1CCCN1C(=O)[C@H](CCCN=C(N)N)NC(=O)[C@H](CCCCN)NC(=O)[C@H](CC(=O)O)NC(=O)[C@@H](N)C(C)C)C(=O)N[C@@H](Cc1ccc(O)cc1)C(=O)N[C@@H](CC(N)=O)C(=O)N[C@@H](CCCN=C(N)N)C(N)=O` [VDKRPRLPRKRPPRRIYNR], which MIC (Escherichia coli JW0013) is on record?
**A.** The MIC was 0.647 µM (≈ 1.6 µg/mL).

**Q.** `CC[C@H](C)[C@H](NC(=O)[C@H](CCCN=C(N)N)NC(=O)[C@H](CCCN=C(N)N)NC(=O)[C@@H]1CCCN1C(=O)[C@@H]1CCCN1C(=O)[C@H](CCCN=C(N)N)NC(=O)[C@H](Cc1ccc(O)cc1)NC(=O)[C@H](CCCN=C(N)N)NC(=O)[C@@H]1CCCN1C(=O)[C@H](CC(C)C)NC(=O)[C@H](Cc1ccc(O)cc1)NC(=O)[C@@H]1CCCN1C(=O)[C@@H]1CCCN1C(=O)[C@H](CCCCN)NC(=O)[C@H](CC(=O)O)NC(=O)[C@@H](N)C(C)C)C(=O)N[C@@H](Cc1ccc(O)cc1)C(=O)N[C@@H](CC(N)=O)C(=O)N[C@@H](CCCN=C(N)N)C(N)=O` [VDKPPYLPRYRPPRRIYNR] was tested. Which MIC (Escherichia coli JW0013) did it give?
**A.** Its MIC is 1.95 µM (≈ 4.8 µg/mL).

**Q.** With `CC[C@H](C)[C@H](NC(=O)[C@H](CCCN=C(N)N)NC(=O)[C@H](CCCN=C(N)N)NC(=O)[C@@H]1CCCN1C(=O)[C@@H]1CCCN1C(=O)[C@H](CCCN=C(N)N)NC(=O)[C@@H]1CCCN1C(=O)[C@H](CCCN=C(N)N)NC(=O)[C@@H]1CCCN1C(=O)[C@H](CC(C)C)NC(=O)[C@H](CCCN=C(N)N)NC(=O)[C@@H]1CCCN1C(=O)[C@H](CCCN=C(N)N)NC(=O)[C@H](CCCCN)NC(=O)[C@H](CC(=O)O)NC(=O)[C@@H](N)C(C)C)C(=O)N[C@@H](Cc1ccc(O)cc1)C(=O)N[C@@H](CC(N)=O)C(=O)N[C@@H](CCCN=C(N)N)C(N)=O` [VDKRPRLPRPRPPRRIYNR] as the compound, how does the MIC (Escherichia coli JW0013) read?
**A.** Its MIC is 0.532 µM (≈ 1.3 µg/mL).

**Q.** For `CC(C)[C@H](NC(=O)CNC(=O)[C@@H](N)Cc1cnc[nH]1)C(=O)N[C@@H](CO)C(=O)NCC(=O)N[C@@H](Cc1cnc[nH]1)C(=O)NCC(=O)N[C@@H](CCC(N)=O)C(=O)N[C@@H](Cc1cnc[nH]1)C(=O)NCC(=O)N[C@H](C(=O)N[C@@H](Cc1cnc[nH]1)C(=O)NCC(=O)O)[C@@H](C)O` [HGVSGHGQHGTHG], which MIC [1] is on record?
**A.** The MIC was 6.31 µM (≈ 8 µg/mL).

**Q.** And the MIC [2]?
**A.** Its MIC is 6.31 µM (≈ 8 µg/mL).

**Q.** And the MIC [3]?
**A.** The MIC was 12.6 µM (≈ 16 µg/mL).

**Q.** And the MIC (Pseudomonas aeruginosa)?
**A.** Its MIC is 12.6 µM (≈ 16 µg/mL).

**Q.** And the MIC (Staphylococcus aureus)?
**A.** Its MIC is 12.6 µM (≈ 16 µg/mL).

**Q.** What about the MIC [4] of the same compound?
**A.** The MIC was 6.31 µM (≈ 8 µg/mL).

**Q.** And the MIC [5]?
**A.** Its MIC is 3.16 µM (≈ 4 µg/mL).

**Q.** And the MIC (Escherichia coli)?
**A.** The MIC was 6.31 µM (≈ 8 µg/mL).

**Q.** And the MIC (Klebsiella pneumoniae)?
**A.** The MIC was 6.31 µM (≈ 8 µg/mL).

**Q.** `CC[C@H](C)[C@H](NC(=O)[C@H](CCCN=C(N)N)NC(=O)[C@H](CCCN=C(N)N)NC(=O)[C@@H]1CCCN1C(=O)[C@@H]1CCCN1C(=O)[C@H](CCCN=C(N)N)NC(=O)[C@@H]1CCCN1C(=O)[C@H](CCCN=C(N)N)NC(=O)[C@@H]1CCCN1C(=O)[C@H](CC(C)C)NC(=O)[C@H](CCCN=C(N)N)NC(=O)[C@H](Cc1cnc[nH]1)NC(=O)[C@H](CCCCN)NC(=O)[C@H](CCCCN)NC(=O)[C@H](CC(=O)O)NC(=O)[C@@H](N)C(C)C)C(=O)N[C@@H](Cc1ccc(O)cc1)C(=O)N[C@@H](CC(N)=O)C(=O)N[C@@H](CCCN=C(N)N)C(N)=O` [VDKKHRLPRPRPPRRIYNR] was tested. Which MIC (Escherichia coli JW0013) did it give?
**A.** Its MIC is 0.978 µM (≈ 2.4 µg/mL).

**Q.** With `C[C@H](NC(=O)[C@H](Cc1c[nH]c2ccccc12)NC(=O)[C@H](CCCCN)NC(=O)[C@H](CCCN=C(N)N)NC(=O)CNC(=O)[C@H](Cc1c[nH]c2ccccc12)NC(=O)[C@H](CCCN=C(N)N)NC(=O)[C@H](CCCN=C(N)N)NC(=O)[C@H](Cc1c[nH]c2ccccc12)NC(=O)CNC(=O)[C@@H](N)CCCN=C(N)N)C(=O)N[C@@H](Cc1cnc[nH]1)C(=O)NCC(=O)N[C@@H](Cc1c[nH]c2ccccc12)C(=O)N[C@@H](CCCCN)C(=O)N[C@@H](CCCCN)C(=O)N[C@@H](Cc1ccc(O)cc1)C(=O)NCC(N)=O` [RGWRRWGRKWAHGWKKYG] as the compound, how does the MIC [6] read?
**A.** Its MIC is 2 µM (≈ 4.74 µg/mL).

**Q.** And the MIC [7]?
**A.** Its MIC is 4 µM (≈ 9.48 µg/mL).

**Q.** What about the MIC [8] of the same compound?
**A.** The MIC was 2 µM (≈ 4.74 µg/mL).

**Q.** What about the MIC [9] of the same compound?
**A.** Its MIC is 8 µM (≈ 19 µg/mL).

**Q.** And the MIC [10]?
**A.** The MIC was 4 µM (≈ 9.48 µg/mL).

**Q.** How did the MIC (Escherichia coli JW0013) turn out when `CC(C)C[C@H](NC(=O)[C@H](CCCN=C(N)N)NC(=O)[C@@H]1CCCN1C(=O)[C@@H]1CCCN1C(=O)[C@H](CCCN=C(N)N)NC(=O)[C@@H]1CCCN1C(=O)[C@H](CCCN=C(N)N)NC(=O)[C@H](CCCN=C(N)N)NC(=O)[C@H](CCCN=C(N)N)NC(=O)[C@@H](N)CCCN=C(N)N)C(=O)N1CCC[C@H]1C(=O)N[C@@H](CCCN=C(N)N)C(=O)N1CCC[C@H]1C(=O)N[C@@H](CCCN=C(N)N)C(=O)N1CCC[C@H]1C(=O)N[C@@H](CCCN=C(N)N)C(=O)O` [RRRRPRPPRLPRPRPR] was run?
**A.** The MIC was 0.3 µM (≈ 0.636 µg/mL).
